# Assay results from US20240376091A1, “THIADIAZOLEAMIDE DERIVATIVES AND THEIR APPLICATIONS” (ZHEJIANG UNIVERSITY, priority 2021, published 2024).
# pIC50: −log10 of the molar value.
# Molecular target: T1, AR (Homo sapiens, UniProt P10275, T878A)
# T1 construct: into the androgen-dependent PCa cells (LNCaP); endogenous in cells; host or cells: LNCaP-ARR2PB-eGFP
# T1 sequence (P10275 1-920 T878A): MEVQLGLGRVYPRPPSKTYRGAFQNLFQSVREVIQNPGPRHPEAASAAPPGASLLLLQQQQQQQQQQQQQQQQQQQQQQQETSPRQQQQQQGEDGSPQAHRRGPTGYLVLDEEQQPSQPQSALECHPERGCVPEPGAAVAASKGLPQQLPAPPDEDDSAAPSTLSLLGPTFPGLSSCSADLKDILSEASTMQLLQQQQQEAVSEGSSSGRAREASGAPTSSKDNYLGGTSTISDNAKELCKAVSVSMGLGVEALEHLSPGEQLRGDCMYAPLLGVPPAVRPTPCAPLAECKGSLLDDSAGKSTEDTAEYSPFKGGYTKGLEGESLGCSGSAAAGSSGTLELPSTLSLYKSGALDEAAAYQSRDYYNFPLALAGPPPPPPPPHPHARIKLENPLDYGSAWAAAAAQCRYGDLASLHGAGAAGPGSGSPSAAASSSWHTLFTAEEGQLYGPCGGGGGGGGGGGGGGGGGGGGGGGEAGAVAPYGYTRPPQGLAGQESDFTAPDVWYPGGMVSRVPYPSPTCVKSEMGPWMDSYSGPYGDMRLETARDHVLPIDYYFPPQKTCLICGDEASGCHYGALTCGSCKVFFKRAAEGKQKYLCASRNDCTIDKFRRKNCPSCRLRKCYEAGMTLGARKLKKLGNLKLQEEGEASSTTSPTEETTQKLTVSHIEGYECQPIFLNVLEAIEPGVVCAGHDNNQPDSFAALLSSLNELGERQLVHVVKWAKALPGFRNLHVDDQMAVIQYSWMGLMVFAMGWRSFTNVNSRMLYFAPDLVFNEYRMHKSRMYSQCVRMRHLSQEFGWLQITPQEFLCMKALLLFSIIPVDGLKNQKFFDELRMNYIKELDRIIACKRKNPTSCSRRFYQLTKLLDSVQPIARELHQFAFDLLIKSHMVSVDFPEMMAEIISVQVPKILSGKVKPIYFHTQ
# Experiment: AR transcriptional activity, LNCaP-ARR2PB-eGFP reporter cells
# Format: cell-based
# Details: read-out: IC50 AR transcriptional activities
# Source text: Detection principles: We conducted a stable transfection of promoter ARR2PB known for its strong AR responsiveness, into the androgen-dependent PCa cells (LNCaP). The expression of enhanced green fluorescent protein (eGFP) is depending on the degree of activation of AR. Therefore, LNCaP-ARR2PB-eGFP cell line could quantitatively determine the AR antagonistic activities of the compounds by evaluating the expression of eGFP.
row,SMILES,pIC50
1,"CC(=O)Cc1nsc(NC(=O)c2cc(-c3cccc(OC(F)(F)F)c3)sc2C)n1 [Compound C-4, 2-Methyl-N-(3-(2-oxopropyl)-1,2,4-thiadiazol-5-yl)-5-(3-(trifluoromethoxy)phenyl)thiophene-3-carboxamide]",4.60
2,"CC(=O)Cc1nsc(NC(=O)c2cc(-c3cccc(C(F)(F)F)c3)c(C)o2)n1 [Compound F-1, 5-Methyl-N-(3-(2-oxopropyl)-1,2,4-thiadiazol-5-yl)-4-(3-(trifluoromethyl)phenyl)furan-2-carboxamide]",4.55
3,"CCN(CC)C(C)Cc1nsc(NC(=O)c2cc(-c3cccc(C(F)(F)F)c3)sc2C)n1 (centres unmarked) [Compound C-7, N-(3-(2-(diethylamino)propyl)-1,2,4-thiadiazol-5-yl)-2-methyl-5-(3-(trifluoromethyl)phenyl)thiophene-3-carboxamide]",4.98
4,"CN1CCN(Cc2nsc(NC(=O)c3csc(-c4cccc(OC(F)F)c4)c3)n2)CC1 [Compound D-58, 5-(3-(Difluoromethoxy)phenyl)-N-(3-((4-methylpiperazin-1-yl)methyl)-1,2,4-thiadiazol-5-yl)thiophene-3-carboxamide]",4.62
5,"Cc1sc(-c2cccc(C(F)(F)F)c2)cc1C(=O)Nc1nc(CC(C)O)ns1 (centres unmarked) [Compound C-20, N-(3-(2-hydroxypropyl)-1,2,4-thiadiazol-5-yl)-2-methyl-5-(3-(trifluoromethyl)phenyl)thiophene-3-carboxamide]",5.34
6,"Cc1oc(C(=O)Nc2nc(CC(C)O)ns2)cc1-c1cccc(C(F)(F)F)c1 (centres unmarked) [Compound F-11, N-(3-(2-hydroxypropyl)-1,2,4-thiadiazol-5-yl)-5-methyl-4-(3-(trifluoromethyl)phenyl) furan-2-carboxamide]",4.65
7,"CC(F)(F)Cc1nsc(NC(=O)c2cc(-c3cccc(C(F)(F)F)c3)oc2C(F)(F)F)n1 [Compound E-27, N-(3-(2,2-difluoropropyl)-1,2,4-thiadiazol-5-yl)-2-(trifluoromethyl)-5-(3-(trifluoromethyl)phenyl) fura n-3-carboxamide]",6.02
8,"CCN(CC)Cc1nsc(NC(=O)c2csc(-c3cccc(OC)c3)c2)n1 [Compound D-50, N-(3-((diethylamino)methyl)-1,2,4-thiadiazol-5-yl)-5-(3-methoxyphenyl)thiophene-3-carboxamide]",4.82
9,"CC(O)(Cc1nsc(NC(=O)c2cc(-c3cccc(C#N)c3)co2)n1)C(F)(F)F (centres unmarked) [Compound G-13, 4-(3-Cyanophenyl)-N-(3-(3,3,3-trifluoro-2-hydroxy-2-methylpropyl)-1,2,4-thiadiazol-5-yl) furan-2-carboxamide]",4.66
10,"Cc1sc(-c2cccc(OC(F)F)c2)cc1C(=O)Nc1nc(CN2CCCCC2)ns1 [Compound C-56, 5-(3-(Difluoromethoxy)phenyl)-2-methyl-N-(3-(piperidin-1-ylmethyl)-1,2,4-thiadiazol-5-yl)thiophene-3-carboxamide]",4.89
11,"[2H]c1c(-c2cccc(OC(F)F)c2)oc(C)c1C(=O)Nc1nc(CC(C)=O)ns1 [Compound A-37, 5-(3-(Difluoromethoxy)phenyl)-2-methyl-N-(3-(2-oxopropyl)-1,2,4-thiadiazol-5-yl)furan-4-d-3-carboxamide]",7.52
12,"CC(=O)Cc1nsc(NC(=O)c2cc(-c3cccc(OC(F)F)c3)c(C)o2)n1 [Compound F-5, 4-(3-(Difluoromethoxy)phenyl)-5-methyl-N-(3-(2-oxopropyl)-1,2,4-thiadiazol-5-yl)furan-2-carboxamide]",4.90
13,"[2H]c1c(-c2cccc(OC(F)(F)F)c2)oc(C)c1C(=O)Nc1nc(CC(C)=O)ns1 [Compound A-36, 2-Methyl-N-(3-(2-oxopropyl)-1,2,4-thiadiazol-5-yl)-5-(3-(trifluoromethoxy)phenyl)furan-4-d-3-carboxamide]",7.15
14,"Cc1oc(C(=O)Nc2nc(CC(C)N3CCOCC3)ns2)cc1-c1cccc(OC(F)(F)F)c1 (centres unmarked) [Compound F-9, 5-Methyl-N-(3-(2-morpholinopropyl)-1,2,4-thiadiazol-5-yl)-4-(3-(trifluoromethoxy)phenyl)furan-2-carboxamide]",4.63
15,"COc1cccc(-c2cc(C(=O)Nc3nc(CC(C)=C(F)F)ns3)oc2C)c1 [Compound F-15, N-(3-(3,3-difluoro-2-methylallyl)-1,2,4-thiadiazol-5-yl)-4-(3-methoxyphenyl)-5-methyl-furan-2-carboxamide]",4.45
16,"C/C(Cc1nsc(NC(=O)c2cc(-c3cccc(C(F)(F)F)c3)oc2C)n1)=N\O [Compound A-69, N-(3-(2-(hydroxyimino)propyl)-1,2,4-thiadiazol-5-yl)-2-methyl-5-(3-(trifluoromethyl)phenyl)furan-3-carboxamide]",6.27
17,"Cc1oc(C(=O)Nc2nc(CCl)ns2)cc1-c1cccc(C(F)(F)F)c1 [Compound F-19, N-(3-(chloromethyl)-1,2,4-thiadiazol-5-yl)-5-methyl-4-(3-(trifluoromethyl)phenyl)furan-2-carboxamide]",4.72
18,"COc1cccc(-c2cc(C(=O)Nc3nc(CC(C)=O)ns3)c(C)s2)c1 [Compound C-3, 5-(3-Methoxyphenyl)-2-methyl-N-(3-(2-oxopropyl)-1,2,4-thiadiazol-5-yl)thiophene-3-carboxamide]",4.36
19,"CC(=O)Cc1nsc(NC(=O)c2cc(-c3cccc(OC(F)F)c3)sc2C)n1 [Compound C-5, 5-(3-(Difluoromethoxy)phenyl)-2-methyl-N-(3-(2-oxopropyl)-1,2,4-thiadiazol-5-yl)thiophene-3-carboxamide]",4.31
20,"Cc1oc(-c2cccc(C(F)(F)F)c2)cc1C(=O)Nc1nc(CC(C)(C)O)ns1 [Compound A-90, N-(3-(2-hydroxy-2-methylpropyl)-1,2,4-thiadiazol-5-yl)-2-methyl-5-(3-(trifluoromethyl)phenyl)furan-3-carboxamide]",7.30
21,"CC(=O)Cc1nsc(NC(=O)c2csc(-c3cccc(OC(F)(F)F)c3)c2)n1 [Compound D-4, N-(3-(2-oxopropyl)-1,2,4-thiadiazol-5-yl)-5-(3-(trifluoromethoxy)phenyl)thiophene-3-carboxamide]",4.38
22,"COC(C)Cc1nsc(NC(=O)c2cc(-c3cccc(C(F)(F)F)c3)oc2C)n1 (centres unmarked) [Compound A-61, N-(3-(2-methoxypropyl)-1,2,4-thiadiazol-5-yl)-2-methyl-5-(3-(trifluoromethyl)phenyl)furan-3-carboxamide]",5.42
23,"Cc1sc(-c2cccc(C(F)(F)F)c2)cc1C(=O)Nc1nc(CC(C)(F)F)ns1 [Compound C-35, N-(3-(2,2-difluoropropyl)-1,2,4-thiadiazol-5-yl)-2-methyl-5-(3-(trifluoromethyl)phenyl)thiophene-3-carboxamide]",4.54
24,"CC(=O)Cc1nsc(NC(=O)c2cc(-c3cccc(OC(F)(F)F)c3)c(C)o2)n1 [Compound F-4, 5-Methyl-N-(3-(2-oxopropyl)-1,2,4-thiadiazol-5-yl)-4-(3-(trifluoromethoxy)phenyl)furan-2-carboxamide]",4.45
25,"O=C(Nc1nc(CCl)ns1)c1coc(-c2cccc(C(F)(F)F)c2)c1 [Compound B-40, N-(3-(chloromethyl)-1,2,4-thiadiazol-5-yl)-5-(3-(trifluoromethyl)phenyl)furan-3-carboxamide]",4.91
26,"COc1cccc(-c2cc(C(=O)Nc3nc(CC(C)N4CCOCC4)ns3)oc2C)c1 (centres unmarked) [Compound F-8, 4-(3-Methoxyphenyl)-5-methyl-N-(3-(2-morpholinopropyl)-1,2,4-thiadiazol-5-yl)furan-2-carboxamide]",4.75
27,"CC(Cc1nsc(NC(=O)c2cc(-c3cccc(OC(F)F)c3)oc2C(F)(F)F)n1)N1CCN(C)CC1 (centres unmarked) [Compound E-11, 5-(3-(Difluoromethoxy)phenyl)-N-(3-(2-(4-methylpiperazin-1-yl)propyl)-1,2,4-thiadiazol-5-yl)-2-(trifluoromethyl)furan-3-carboxamide]",6.01
28,"Cc1sc(-c2cccc(OC(F)F)c2)cc1C(=O)Nc1nc(CN2CCN(C)CC2)ns1 [Compound C-58, 5-(3-(Difluoromethoxy)phenyl)-2-methyl-N-(3-((4-methylpiperazin-1-yl)methyl)-1,2,4-thiadiazol-5-yl)thiophene-3-carboxamide]",5.01
29,"O=C(Nc1nc(CN2CCOCC2)ns1)c1csc(-c2cccc(OC(F)F)c2)c1 [Compound D-57, 5-(3-(Difluoromethoxy)phenyl)-N-(3-(morpholinomethyl)-1,2,4-thiadiazol-5-yl)thiophene-3-carboxamide]",4.82
